The supplement of paper PMC10307832

Assays:
Assay in all cases: relative viability (nuclei count vs DMSO), 5 days (fraction); higher = more cells survive
[1] = compound: N=C1NC(=O)/C(=C/c2ccc(O)cc2)S1 [Mirin] + CC(=O)Nc1cccc(-n2c(=O)n(C3CC3)c(=O)c3c(Nc4ccc(I)cc4F)n(C)c(=O)c(C)c32)c1 [Trametinib] (partner 0.02 µM)
Method in brief: (§1)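 One day after seeding in 1536-well plates, lung cancer cell lines were dosed by pin tool. Dosing was either single-drug or a fixed anchor-drug dose plus five library-drug doses (not always all listed) in √10 steps. After 5 days, nuclei were stained in one fix-and-stain step and counted on 4× images, and relative viability is the nuclei count of treated wells over that of vehicle wells, given as the median of duplicate plates.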

[2] = compound: N=C1NC(=O)/C(=C/c2ccc(O)cc2)S1 [Mirin] + CC(=O)c1c(C)c2cnc(Nc3ccc(N4CCNCC4)cn3)nc2n(C2CCCC2)c1=O [Palbociclib] (partner 0.5 µM)
Method in brief: as §1

[3] = compound: N=C1NC(=O)/C(=C/c2ccc(O)cc2)S1 [Mirin] + C[C@@H](Oc1cc(-c2cnn(C3CCNCC3)c2)cnc1N)c1c(Cl)ccc(F)c1Cl [Crizotinib] (partner 1 µM)
Method in brief: as §1

[4] = compound: CCC1=CN=CN=C1N2CCN(CC2)CC3=NC4=C(N3)C=C(C=C4)C(F)(F)F + CS(=O)(=O)CCNCc1ccc(-c2ccc3ncnc(Nc4ccc(OCc5cccc(F)c5)c(Cl)c4)c3c2)o1 [Lapatinib] (partner 2 µM)
Method in brief: as §1

Cell Line	relative viability ([1]; first compound 0.25 µM)	relative viability ([1]; first compound 0.7906 µM)	relative viability ([1]; first compound 2.5 µM)	relative viability ([1]; first compound 7.906 µM)	relative viability ([1]; first compound 25 µM)	relative viability ([2]; first compound 0.25 µM)	relative viability ([2]; first compound 0.7906 µM)	relative viability ([2]; first compound 2.5 µM)	relative viability ([2]; first compound 7.906 µM)	relative viability ([2]; first compound 25 µM)	relative viability ([3]; first compound 0.25 µM)	relative viability ([3]; first compound 0.7906 µM)	relative viability ([3]; first compound 2.5 µM)	relative viability ([3]; first compound 7.906 µM)	relative viability ([3]; first compound 25 µM)	relative viability ([4]; first compound 0.04 µM)	relative viability ([4]; first compound 0.1265 µM)	relative viability ([4]; first compound 0.4 µM)	relative viability ([4]; first compound 1.265 µM)	relative viability ([4]; first compound 4 µM)
201T	0.739	0.74	0.77	0.796	0.857	0.365	0.413	0.353	0.348	0.395	0.936	1.09	0.995	1.16	1.22	1.01	0.992	1.03	0.947	1.09
NCI-H2228	0.627	0.39	0.551	0.382	0.423	0.863	0.704	0.799	0.647	0.622	0.481	0.474	0.462	0.469	0.488	0.949	1.11	0.79	1.14	1.06
LC-2-ad	0.964	1.06	0.979	0.906	0.945	0.543	0.456	0.474	0.505	0.483	0.493	0.518	0.466		0.254	1.07	0.898	0.899	0.945	0.925
NCI-H2085	0.514	0.465	0.519	0.511	0.59	0.458	0.47	0.495	0.562	0.486	0.798	0.853	0.878	0.704	0.923	0.713	0.704	0.797	0.571	0.784
NCI-H358	0.123	0.146	0.163	0.11	0.13	0.127	0.145	0.148	0.139	0.199	0.553	0.678	0.536	0.329	0.243	0.477	0.399	0.428	0.337	0.387
H3255	0.604	0.752	0.557	0.412	0.566	0.308	0.309	0.298	0.323	0.328	0.882	0.939	0.838	0.735	0.836	0.241	0.238	0.218	0.234	0.246
NCI-H23	0.358		0.384	0.279	0.298	0.548		0.519	0.49	0.524	0.403		0.469	0.451	0.337	1.2	1.21	0.966	0.982	1.11
CAL-12T	0.336	0.373	0.405	0.357	0.32	0.265	0.193	0.508	0.408	0.339	0.667	0.509	0.619	0.573	0.639		0.667	0.677	0.707	0.574
